Data taken from PubChem BioAssay (NCI).
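These data come from cells grown in 96-well plates and exposed to compound for 48 hours at five concentrations. Definition used: TGI = concentration required for complete inhibition of growth.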

Assays:
Experiment in all cases: NCI anticancer screen, dose series, 48 h
[1] = test system: 786-0 renal
[2] = test system: A549 NSCLC
[3] = test system: BT-549 breast
[4] = test system: CAKI-1 renal
[5] = test system: HCT-116 colon
[6] = test system: HCT-15 colon
[7] = test system: HS 578T breast
[8] = test system: K-562 leukemia
[9] = test system: KM12 colon
[10] = test system: MALME-3M melanoma
[11] = test system: MCF7 breast
[12] = test system: MDA-MB-231 breast
[13] = test system: MDA-MB-435
[14] = test system: NCI/ADR-RES ovarian
[15] = test system: PC-3 prostate
[16] = test system: SF-268 CNS
[17] = test system: SK-MEL-2 melanoma
[18] = test system: SN12C renal
[19] = test system: SNB-19 CNS
[20] = test system: SW-620 colon

SMILES	TGI [1]	TGI [2]	TGI [3]	TGI [4]	TGI [5]	TGI [6]	TGI [7]	TGI [8]	TGI [9]	TGI [10]	TGI [11]	TGI [12]	TGI [13]	TGI [14]	TGI [15]	TGI [16]	TGI [17]	TGI [18]	TGI [19]	TGI [20]
CCOC(=O)c1c(N2CCOCC2)ncn(-c2cccc(Cl)c2)c1=O	> 100 µM	> 100 µM	> 100 µM	> 100 µM	> 100 µM	> 100 µM	> 100 µM	> 100 µM	> 100 µM	> 100 µM	> 100 µM	> 100 µM	> 100 µM	> 100 µM	> 100 µM	> 100 µM	> 100 µM	> 100 µM	> 100 µM	> 100 µM
CCOC(=O)N/N=C(\CC)NO	> 100 µM	> 100 µM	> 100 µM	> 100 µM	> 100 µM	> 100 µM	> 100 µM	> 100 µM	> 100 µM	> 100 µM	> 100 µM	> 100 µM	> 100 µM	> 100 µM	> 100 µM	> 100 µM	> 100 µM	> 100 µM	> 100 µM	> 100 µM
COc1ccc(/C=C2\CCC(C)c3c2nc(N)c(C#N)c3-c2ccc(OC)c(OC)c2)cc1OC (configuration not stated)	> 100 µM		> 100 µM	> 100 µM	> 100 µM	> 100 µM	> 100 µM	> 100 µM	> 100 µM	> 100 µM	> 100 µM	> 100 µM	> 100 µM	> 100 µM	> 100 µM	> 100 µM	> 100 µM	> 100 µM	> 100 µM	> 100 µM
Clc1ccc(C(Cc2ccccc2)c2c(Cl)nc(N3CCNCC3)nc2Cl)cc1 (configuration not stated)	30.1 µM	30.4 µM	47.4 µM	18 µM	20.5 µM	14.5 µM	32.6 µM	17.8 µM	20.7 µM	28.4 µM	20 µM	26.9 µM	32 µM	35 µM	28 µM		33.2 µM	28.8 µM	28.6 µM	27.7 µM
CC[C@@H]([C@H](O)c1ccccc1Cl)[N+](=O)[O-]	> 100 µM	> 100 µM	> 100 µM	> 100 µM	> 100 µM	> 100 µM	> 100 µM		> 100 µM		> 100 µM	> 100 µM	> 100 µM	> 100 µM	> 100 µM	> 100 µM	> 100 µM	> 100 µM	> 100 µM	> 100 µM
CCOC(=O)c1csc(C(CSCc2ccc(OC)cc2)N2C(=O)c3ccccc3C2=O)n1 (configuration not stated)	> 100 µM	> 100 µM	> 100 µM	> 100 µM	> 100 µM	> 100 µM	> 100 µM	> 100 µM	> 100 µM	> 100 µM	> 100 µM	> 100 µM	> 100 µM	> 100 µM	> 100 µM	> 100 µM		> 100 µM	> 100 µM	> 100 µM
O=c1oc2ccccc2c(O)c1C(c1cccc(C(c2c(O)c3ccccc3oc2=O)c2c(O)c3ccccc3oc2=O)c1)c1c(O)c2ccccc2oc1=O	45.1 µM	> 100 µM	> 100 µM	49.5 µM	> 100 µM	> 100 µM	> 100 µM	53.5 µM	> 100 µM		61.3 µM	99.3 µM	> 100 µM	> 100 µM	> 100 µM	> 100 µM	> 100 µM	83 µM		> 100 µM
O=C(Cn1c(C(=O)/C=C/c2ccc(Cl)cc2)nc2ccccc21)c1ccc(Cl)cc1	66.8 µM	71.5 µM	55.2 µM		26.2 µM	51.8 µM	29.1 µM	> 100 µM	27.6 µM	52.6 µM	30.9 µM	52 µM	37.5 µM	63 µM	> 100 µM	> 100 µM	39.5 µM	37.3 µM	69.5 µM	> 100 µM
O=C(/C=C/c1ccccc1)c1cc(C(=O)/C=C/c2ccccc2)c(O)cc1O	> 100 µM	> 100 µM	> 100 µM	> 100 µM	> 100 µM	> 100 µM	83.7 µM			> 100 µM	> 100 µM		> 100 µM		> 100 µM		> 100 µM	> 100 µM	> 100 µM	> 100 µM
C=CCc1oc(C)nc1CCCC	> 100 µM	> 100 µM	> 100 µM	> 100 µM	> 100 µM	> 100 µM	> 100 µM	> 100 µM	> 100 µM	> 100 µM	> 100 µM	> 100 µM	> 100 µM	> 100 µM	> 100 µM	> 100 µM		> 100 µM	> 100 µM	> 100 µM
CC(C)OC(=O)C1(C(C)C)CCc2ccc(C(=O)CCC(=O)O)cc21 (configuration not stated)	> 100 µM	> 100 µM	> 100 µM	> 100 µM	> 100 µM	> 100 µM	> 100 µM	> 100 µM	> 100 µM	> 100 µM	> 100 µM	> 100 µM		> 100 µM	> 100 µM	> 100 µM	> 100 µM	> 100 µM	> 100 µM	> 100 µM
Cc1ccc2c(c1)C=CC1(O2)N(c2ccccc2)C(=S)OC1(C)C (configuration not stated)	> 100 µM	> 100 µM	> 100 µM	> 100 µM	> 100 µM	> 100 µM	> 100 µM	> 100 µM	> 100 µM		> 100 µM	> 100 µM	> 100 µM	> 100 µM	> 100 µM	> 100 µM	> 100 µM	> 100 µM	> 100 µM	> 100 µM
CSc1ncc2c(C#N)c3[nH]c4ccccc4n3c(=O)c2n1	> 100 µM		> 100 µM	78.4 µM	57.5 µM	76.4 µM	> 100 µM	46 µM	> 100 µM		> 100 µM	> 100 µM	67 µM	99.3 µM	48.7 µM	> 100 µM	33 µM	> 100 µM	> 100 µM	> 100 µM
COc1ccc(C2Oc3c(cccc3-c3c(-c4ccc(O)cc4)oc4cc(O)cc(O)c4c3=O)C(=O)C2O)cc1O (configuration not stated)	> 100 µM	> 100 µM	> 100 µM		> 100 µM	> 100 µM		> 100 µM		> 100 µM	> 100 µM	> 100 µM	> 100 µM	> 100 µM	> 100 µM	> 100 µM		> 100 µM	> 100 µM	> 100 µM
CC(C)(C)n1c(=O)n(-c2ccccc2)n(C(C)(C)C)c1=O	> 100 µM	> 100 µM	> 100 µM	> 100 µM	> 100 µM	> 100 µM	> 100 µM	> 100 µM	> 100 µM	> 100 µM	> 100 µM	> 100 µM		> 100 µM	> 100 µM		> 100 µM	> 100 µM	> 100 µM	> 100 µM
COc1ccc2nc3n(c2c1)C(c1c(F)cccc1F)SC3 (configuration not stated)	> 100 µM	> 100 µM	> 100 µM	> 100 µM	75.2 µM	> 100 µM	87.7 µM	> 100 µM	> 100 µM		> 100 µM	> 100 µM	> 100 µM	59.2 µM	> 100 µM	> 100 µM	74.9 µM	> 100 µM	93.3 µM	> 100 µM
O=C1C=C(NCC(c2ccccc2)c2ccccc2)C(=O)c2ncccc21	15.3 µM	1.87 µM	5.09 µM	11.4 µM	> 23.7 µM	1.34 µM	12.3 µM	4.1 µM	16.5 µM	3.4 µM	3.33 µM	11.5 µM	2.84 µM	8.05 µM	6.24 µM	13.8 µM	9.13 µM	5.16 µM	9.62 µM	
Cc1ccc(C)n2c1nc1cc3ccccc3cc12	> 100 µM	> 100 µM	> 100 µM		> 100 µM	> 100 µM	> 100 µM	> 100 µM	> 100 µM	> 100 µM	16 µM		> 100 µM	> 100 µM	> 100 µM	> 100 µM		> 100 µM	> 100 µM	> 100 µM
C[C@@H](NC(=O)Cn1c(Cl)nc2ccccc21)c1ccccc1	> 100 µM	> 100 µM	> 100 µM	> 100 µM	> 100 µM	> 100 µM	> 100 µM	> 100 µM	> 100 µM	> 100 µM	> 100 µM	> 100 µM	> 100 µM	> 100 µM	> 100 µM	> 100 µM	> 100 µM		> 100 µM	> 100 µM
CC(NP(=O)(c1ccccc1)c1ccccc1)c1ccccc1 (configuration not stated)	> 100 µM	> 100 µM	> 100 µM	> 100 µM	> 100 µM	> 100 µM	> 100 µM	> 100 µM	> 100 µM	> 100 µM	> 100 µM	> 100 µM	> 100 µM	> 100 µM	> 100 µM	> 100 µM		> 100 µM	> 100 µM	> 100 µM
CC1=NN(C(=O)CC(=O)NC(=O)/C=C\c2ccccc2)C(=O)C1N=Nc1ccc([N+](=O)[O-])cc1 (configuration not stated)	> 100 µM	> 100 µM	83.5 µM	> 100 µM	> 100 µM	> 100 µM	> 100 µM	> 100 µM	> 100 µM	> 100 µM	> 100 µM	> 100 µM	> 100 µM	> 100 µM	> 100 µM	> 100 µM		> 100 µM	> 100 µM	> 100 µM
COC(=O)[C@]12C3=C(O)C(=O)C[C@H]1OC[C@H]2C=CC3	> 100 µM	> 100 µM	> 100 µM	> 100 µM		> 100 µM	> 100 µM	> 100 µM	> 100 µM	> 100 µM	> 100 µM	> 100 µM	> 100 µM	> 100 µM	> 100 µM	> 100 µM	> 100 µM	> 100 µM	> 100 µM	63.4 µM
O=C(Cn1c2c(c3ccccc31)CCCC2)N1CCCCC1	> 100 µM	> 100 µM	> 100 µM	> 100 µM	> 100 µM	> 100 µM	> 100 µM			> 100 µM	> 100 µM		> 100 µM	> 100 µM	> 100 µM		> 100 µM	> 100 µM	> 100 µM	> 100 µM
Cc1ccc2c(n1)NC(=O)C(Cc1ccccc1)(N=[N+]=[N-])C2=O (configuration not stated)	> 100 µM	> 100 µM	> 100 µM	> 100 µM	> 100 µM	> 100 µM		> 100 µM	> 100 µM	> 100 µM	> 100 µM	> 100 µM	> 100 µM	> 100 µM	> 100 µM	> 100 µM		> 100 µM	> 100 µM	> 100 µM
CC(C)(C)[Si](C)(C)OCCc1ccccc1C1CC2(S(=O)(=O)c3ccccc3)ON1CC2S(=O)(=O)c1ccccc1 (configuration not stated)	> 100 µM	> 100 µM	> 100 µM		> 100 µM		> 100 µM	> 100 µM	> 100 µM		> 100 µM	> 100 µM	> 100 µM	> 100 µM		> 100 µM	> 100 µM	> 100 µM	> 100 µM	> 100 µM
